The source of these data is US12569566B2, “Compositions containing, methods and uses of antibody-TLR agonist conjugates” (Ambrx, Inc., priority 2019, dated 2026).

The target in the assay is T1, hTLR7 (Homo sapiens, UniProt Q9NYK1).
T1 construct: host or cells: HEK-Blue hTLR7 (HEK293-derived reporter cell line)
T1 sequence (Q9NYK1 27-1049): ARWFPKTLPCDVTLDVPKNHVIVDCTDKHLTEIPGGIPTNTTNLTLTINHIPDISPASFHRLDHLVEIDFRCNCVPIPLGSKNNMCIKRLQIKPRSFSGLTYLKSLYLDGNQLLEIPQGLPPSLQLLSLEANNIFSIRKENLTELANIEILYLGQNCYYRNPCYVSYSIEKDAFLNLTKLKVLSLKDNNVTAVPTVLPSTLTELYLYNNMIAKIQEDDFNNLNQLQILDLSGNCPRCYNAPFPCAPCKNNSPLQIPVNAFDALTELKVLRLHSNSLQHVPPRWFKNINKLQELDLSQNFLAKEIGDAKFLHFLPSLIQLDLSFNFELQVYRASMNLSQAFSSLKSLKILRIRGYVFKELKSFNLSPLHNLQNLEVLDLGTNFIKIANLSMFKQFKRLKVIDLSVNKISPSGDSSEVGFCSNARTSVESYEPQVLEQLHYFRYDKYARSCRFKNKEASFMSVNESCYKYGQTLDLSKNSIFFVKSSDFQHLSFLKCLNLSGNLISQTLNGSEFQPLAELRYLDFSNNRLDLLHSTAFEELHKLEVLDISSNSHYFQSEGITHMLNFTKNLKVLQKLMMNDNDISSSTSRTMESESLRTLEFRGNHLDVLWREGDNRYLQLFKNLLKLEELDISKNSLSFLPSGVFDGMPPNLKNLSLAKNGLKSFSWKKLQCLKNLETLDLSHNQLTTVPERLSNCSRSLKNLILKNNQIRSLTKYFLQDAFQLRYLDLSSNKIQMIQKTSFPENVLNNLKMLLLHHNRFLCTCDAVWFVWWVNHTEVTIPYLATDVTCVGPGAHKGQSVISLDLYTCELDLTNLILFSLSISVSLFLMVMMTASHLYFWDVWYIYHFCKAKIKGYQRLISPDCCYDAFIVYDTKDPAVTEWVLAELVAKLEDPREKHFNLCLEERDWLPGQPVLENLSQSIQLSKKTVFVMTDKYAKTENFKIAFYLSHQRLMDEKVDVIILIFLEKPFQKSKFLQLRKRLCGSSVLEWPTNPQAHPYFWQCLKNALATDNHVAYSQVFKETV
The assay is described as follows: HEK-Blue hTLR7 reporter assay (NF-kB-induced SEAP, Quanti-Blue, OD 655 nm). It is filed as cell-based. The settings on record: for TLR7 activity / potency stated in words: FIGS. 6-9. Here is the method:
HEK-Blue™ hTLR7 cells were incubated in HEK-Blue™ Detection medium and stimulated with increasing concentrations of TLR7 or TLR8 or TLR7/8 agonists. […] The EC50 was determined from dose-response curve using Prism Software.
A general note: A reporter such as luciferase makes a cellular process visible.

Where [1] appears, read: Table 14, FIG. 8, (DL) = drug linker, read-out: TLR7 EC50.
Setting [2] is: text to FIG. 5B and FIG. 8, read-out: EC50 values (TLR7).

Read-outs that look alike come from different tables or passages of the source.

As a reminder, the EC50 is the concentration that produces a half-maximal response.

In the case of `CCOCc1nc2c(N)nc3ccccc3c2n1CCCCNC(=O)c1ccc(N)c(OC)c1` [AXC-807], the EC50 (Table 10, FIG. 5A, 24 h, read-out: TLR7 EC50) turned out to be 413 nM.

As to `CCCCNc1nc(N)c2[nH]c(=O)n(Cc3ccc(NCCN(C)CCNC(=O)CON)nc3)c2n1` [AXC-868, N-(2-((2-(5-((6-amino-2-(butylamino)-8-oxo-7H-purin-9(8H)-yl)methyl)pyridin-2-ylamino)ethyl)(methyl)amino)ethyl)-2-(aminooxy)acetamide], the EC50 (Table 12, FIG. 6, TLR7 agonists attached to a linker, read-out: TLR Agonist Payload + Linkers EC50) was greater than 5000 nM.

For the compound `CCCCOc1nc(N)c2[nH]c(=O)n(Cc3ccc(CN4CCC(CCNC(=O)CON)CC4)cc3)c2n1` [AXC-879, N-(2-(1-(4-((6-amino-2-butoxy-8-oxo-7H-purin-9(8H)-yl)methyl)benzyl)piperidin-4-yl)ethyl)-2-(aminooxy)acetamide], the “TLR7 activity / potency stated in words” value is “highest potency”.

In the case of `CCCCOc1nc(N)c2[nH]c(=O)n(Cc3ccc(CN4CCC(CCNC(=O)c5ccc(N)c(OC)c5)CC4)cc3)c2n1` [AXC-895, 4-amino-N-(2-(1-(4-((6-amino-2-butoxy-8-oxo-7H-purin-9(8H)-yl)methyl)benzyl)piperidin-4-yl)ethyl)-3-methoxybenzamide], the “TLR7 activity / potency stated in words” value is “highest potency”.

On to `CCCCOc1nc(N)c2[nH]c(=O)n(Cc3ccc(CN4CCC(C5CCN(C(=O)CON)CC5)CC4)cc3)c2n1` [AXC-901, 6-amino-9-(4-((1′-(2-(aminooxy)acetyl)-4,4′-bipiperidin-1-yl)methyl)benzyl)-2-butoxy-7H-purin-8(9H)-one], for which the “TLR7 activity / potency stated in words” value is “highest potency”.

As to `CCCCOc1nc(N)c2[nH]c(=O)n(Cc3ccc(CN4CCC(CCNC(=O)c5cccc(N)c5)CC4)cc3)c2n1` [AXC-903, 3-amino-N-(2-(1-(4-((6-amino-2-butoxy-8-oxo-7,8-dihydro-9H-purin-9-yl)methyl)benzyl)piperidin-4-yl)ethyl)benzamide], the EC50 is, setting by setting: under setting [1], 4.3 nM; under setting [2], less than 10 nM.

For the compound `CCCCOc1nc(N)c2[nH]c(=O)n(Cc3ccc(CN4CCC(CCNC(=O)c5ccc(CCN)cc5)CC4)cc3)c2n1` [AXC-904, N-(2-(1-(4-((6-amino-2-butoxy-8-oxo-7,8-dihydro-9H-purin-9-yl)methyl)benzyl)piperidin-4-yl)ethyl)-4-(2-aminoethyl)benzamide], the EC50 reads like this: under setting [1], 8.1 nM; under setting [2], less than 10 nM.

Consider `CCCCOc1nc(N)c2[nH]c(=O)n(Cc3ccc(CN4CCC(CCNC(=O)c5ccc(N)cc5)CC4)cc3)c2n1` [AXC-905, 4-amino-N-(2-(1-(4-((6-amino-2-butoxy-8-oxo-7,8-dihydro-9H-purin-9-yl)methyl)benzyl)piperidin-4-yl)ethyl)benzamide], for which the EC50 under setting [1] was found to be 2.6 nM.
